Test results from patent EP4467141A1, “PYRAZOLO-QUINOLINES AS SELECTIVE INHIBITORS OF GENOTOXIC STRESS-INDUCED IKK/NF- KB PATHWAYS FOR CANCER THERAPY” (Max-Delbrück-Centrum für Molekulare Medizin in der …, priority 2023, dated 2024).

Tests used:
Test in all cases: Kinase panel study
Type in all cases: biochemical
Settings in all cases: read-out: Percentage of inhibition; for inhibition at 1 µM: 1000nM; for inhibition at 10 µM: 10000nM
[1] = target: T1, CDK4/cyclin D3 (Homo sapiens, UniProt P11802)
T1 construct: purchased Thermo Fisher Scientific
Summary of the method: (§1)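 A commercial kinase profiling service ran the assays according to its ZLyte or Adapta standard protocols. Compound was present at 10 µM or 1 µM, and kinase activity loss was expressed as percent inhibition.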

[2] = target: T2, EPHB1 (Homo sapiens, UniProt P54762)
T2 construct: purchased Thermo Fisher Scientific
T2 sequence (P54762 18-984): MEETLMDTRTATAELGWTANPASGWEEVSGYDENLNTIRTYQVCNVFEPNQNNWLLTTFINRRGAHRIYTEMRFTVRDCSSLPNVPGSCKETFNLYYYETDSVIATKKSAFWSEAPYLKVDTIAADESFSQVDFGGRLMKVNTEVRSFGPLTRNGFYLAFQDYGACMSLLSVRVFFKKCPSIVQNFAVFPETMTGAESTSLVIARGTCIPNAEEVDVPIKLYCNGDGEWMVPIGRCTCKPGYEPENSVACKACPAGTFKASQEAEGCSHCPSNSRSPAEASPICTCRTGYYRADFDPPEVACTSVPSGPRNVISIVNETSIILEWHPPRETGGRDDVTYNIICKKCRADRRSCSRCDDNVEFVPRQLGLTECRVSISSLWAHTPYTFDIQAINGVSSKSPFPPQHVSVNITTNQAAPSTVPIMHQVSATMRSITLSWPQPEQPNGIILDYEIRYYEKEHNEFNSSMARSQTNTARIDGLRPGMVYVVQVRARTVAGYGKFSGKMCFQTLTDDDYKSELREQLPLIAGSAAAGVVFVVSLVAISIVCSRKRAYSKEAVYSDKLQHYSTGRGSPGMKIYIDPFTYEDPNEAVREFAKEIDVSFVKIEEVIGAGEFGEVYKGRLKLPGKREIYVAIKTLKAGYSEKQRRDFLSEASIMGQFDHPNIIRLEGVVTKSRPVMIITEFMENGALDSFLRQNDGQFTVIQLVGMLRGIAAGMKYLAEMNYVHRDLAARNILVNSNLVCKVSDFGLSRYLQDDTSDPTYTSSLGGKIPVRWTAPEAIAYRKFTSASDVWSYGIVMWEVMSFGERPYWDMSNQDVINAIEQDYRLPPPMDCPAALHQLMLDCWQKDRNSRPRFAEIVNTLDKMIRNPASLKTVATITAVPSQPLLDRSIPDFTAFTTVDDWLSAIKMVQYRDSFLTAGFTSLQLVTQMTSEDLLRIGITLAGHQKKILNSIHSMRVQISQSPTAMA
Summary of the method: as §1

[3] = target: T3, FGFR2 N549H (Homo sapiens, UniProt P21802, N549H)
T3 construct: purchased Thermo Fisher Scientific
Summary of the method: as §1

[4] = target: T4, LTK (TYK1) (Homo sapiens, UniProt P29376)
T4 construct: purchased Thermo Fisher Scientific
Summary of the method: as §1

[5] = target: T5, MAP4K5 (KHS1) (Homo sapiens, UniProt Q9Y4K4)
T5 construct: purchased Thermo Fisher Scientific
Summary of the method: as §1

[6] = target: T6, RPS6KA5 (MSK1) (Homo sapiens, UniProt O75582)
T6 construct: purchased Thermo Fisher Scientific
Summary of the method: as §1

[7] = target: T7, SNF1LK2 (Homo sapiens, UniProt Q9H0K1)
T7 construct: purchased Thermo Fisher Scientific
Summary of the method: as §1

[8] = target: T8, SRC N1 (Homo sapiens, UniProt P12931)
T8 construct: purchased Thermo Fisher Scientific
Summary of the method: as §1

T3 sequence (P21802 22-821 N549H): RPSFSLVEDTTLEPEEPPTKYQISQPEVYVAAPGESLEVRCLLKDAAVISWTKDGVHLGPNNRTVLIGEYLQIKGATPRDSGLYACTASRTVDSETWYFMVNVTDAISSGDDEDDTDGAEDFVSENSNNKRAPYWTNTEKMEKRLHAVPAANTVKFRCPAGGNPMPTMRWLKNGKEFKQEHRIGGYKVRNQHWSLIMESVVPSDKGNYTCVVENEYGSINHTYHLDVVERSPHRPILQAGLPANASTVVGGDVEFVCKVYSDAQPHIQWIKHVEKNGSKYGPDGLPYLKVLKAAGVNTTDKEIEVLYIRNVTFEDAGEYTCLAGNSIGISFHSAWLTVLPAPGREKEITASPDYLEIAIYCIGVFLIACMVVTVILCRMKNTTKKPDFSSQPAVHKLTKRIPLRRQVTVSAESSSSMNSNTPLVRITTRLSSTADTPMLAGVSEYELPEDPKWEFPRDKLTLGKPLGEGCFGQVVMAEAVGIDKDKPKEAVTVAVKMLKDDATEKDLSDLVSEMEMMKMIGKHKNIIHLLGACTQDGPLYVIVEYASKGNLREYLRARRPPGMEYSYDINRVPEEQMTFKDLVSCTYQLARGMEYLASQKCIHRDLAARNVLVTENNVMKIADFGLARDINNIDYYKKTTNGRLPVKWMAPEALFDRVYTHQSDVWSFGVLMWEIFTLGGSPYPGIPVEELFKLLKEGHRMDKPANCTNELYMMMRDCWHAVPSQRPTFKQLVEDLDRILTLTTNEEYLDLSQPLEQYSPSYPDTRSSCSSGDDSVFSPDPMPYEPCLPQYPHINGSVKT
T1 sequence (P11802 whole entry): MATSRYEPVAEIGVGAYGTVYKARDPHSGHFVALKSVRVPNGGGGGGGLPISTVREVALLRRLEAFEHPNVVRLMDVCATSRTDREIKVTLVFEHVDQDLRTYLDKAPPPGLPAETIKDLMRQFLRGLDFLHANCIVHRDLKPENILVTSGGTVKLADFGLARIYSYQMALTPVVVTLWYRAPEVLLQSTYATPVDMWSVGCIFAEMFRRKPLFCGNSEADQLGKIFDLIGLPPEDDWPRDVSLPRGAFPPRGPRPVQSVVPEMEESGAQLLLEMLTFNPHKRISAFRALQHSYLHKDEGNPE
T1 sequence (P30281 whole entry partner): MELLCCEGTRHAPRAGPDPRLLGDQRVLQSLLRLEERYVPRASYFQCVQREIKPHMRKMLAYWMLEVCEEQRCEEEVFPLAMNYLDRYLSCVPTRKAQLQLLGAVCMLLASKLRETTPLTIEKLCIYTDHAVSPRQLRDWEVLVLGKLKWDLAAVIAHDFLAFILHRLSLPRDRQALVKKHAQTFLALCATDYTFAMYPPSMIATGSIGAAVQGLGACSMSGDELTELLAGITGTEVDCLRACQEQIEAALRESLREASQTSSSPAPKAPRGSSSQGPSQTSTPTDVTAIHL
T7 sequence (Q9H0K1 whole entry): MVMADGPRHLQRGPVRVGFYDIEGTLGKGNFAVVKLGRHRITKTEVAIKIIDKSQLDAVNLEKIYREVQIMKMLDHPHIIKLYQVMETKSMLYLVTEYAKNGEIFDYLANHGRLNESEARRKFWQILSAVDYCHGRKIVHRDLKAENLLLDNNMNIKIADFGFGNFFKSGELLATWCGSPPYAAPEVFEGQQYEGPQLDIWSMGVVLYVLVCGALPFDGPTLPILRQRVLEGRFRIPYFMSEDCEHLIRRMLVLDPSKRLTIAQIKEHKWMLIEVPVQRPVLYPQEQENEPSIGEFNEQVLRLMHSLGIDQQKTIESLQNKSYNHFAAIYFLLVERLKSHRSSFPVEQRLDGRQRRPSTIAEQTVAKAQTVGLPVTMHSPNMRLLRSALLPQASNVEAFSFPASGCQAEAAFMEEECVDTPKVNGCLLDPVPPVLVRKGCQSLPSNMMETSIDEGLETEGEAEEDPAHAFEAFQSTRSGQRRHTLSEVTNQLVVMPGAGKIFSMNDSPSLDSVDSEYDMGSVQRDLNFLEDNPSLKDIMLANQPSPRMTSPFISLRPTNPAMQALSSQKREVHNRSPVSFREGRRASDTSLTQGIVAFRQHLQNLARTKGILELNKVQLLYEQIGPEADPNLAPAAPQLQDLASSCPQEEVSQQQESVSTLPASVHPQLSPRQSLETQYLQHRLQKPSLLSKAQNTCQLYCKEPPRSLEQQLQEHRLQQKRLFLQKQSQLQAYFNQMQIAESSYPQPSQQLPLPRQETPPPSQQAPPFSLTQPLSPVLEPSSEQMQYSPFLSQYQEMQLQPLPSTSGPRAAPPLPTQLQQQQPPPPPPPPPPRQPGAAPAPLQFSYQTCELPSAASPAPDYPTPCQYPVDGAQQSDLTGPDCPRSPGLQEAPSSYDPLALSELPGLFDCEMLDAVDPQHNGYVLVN
T4 sequence (P29376 17-864): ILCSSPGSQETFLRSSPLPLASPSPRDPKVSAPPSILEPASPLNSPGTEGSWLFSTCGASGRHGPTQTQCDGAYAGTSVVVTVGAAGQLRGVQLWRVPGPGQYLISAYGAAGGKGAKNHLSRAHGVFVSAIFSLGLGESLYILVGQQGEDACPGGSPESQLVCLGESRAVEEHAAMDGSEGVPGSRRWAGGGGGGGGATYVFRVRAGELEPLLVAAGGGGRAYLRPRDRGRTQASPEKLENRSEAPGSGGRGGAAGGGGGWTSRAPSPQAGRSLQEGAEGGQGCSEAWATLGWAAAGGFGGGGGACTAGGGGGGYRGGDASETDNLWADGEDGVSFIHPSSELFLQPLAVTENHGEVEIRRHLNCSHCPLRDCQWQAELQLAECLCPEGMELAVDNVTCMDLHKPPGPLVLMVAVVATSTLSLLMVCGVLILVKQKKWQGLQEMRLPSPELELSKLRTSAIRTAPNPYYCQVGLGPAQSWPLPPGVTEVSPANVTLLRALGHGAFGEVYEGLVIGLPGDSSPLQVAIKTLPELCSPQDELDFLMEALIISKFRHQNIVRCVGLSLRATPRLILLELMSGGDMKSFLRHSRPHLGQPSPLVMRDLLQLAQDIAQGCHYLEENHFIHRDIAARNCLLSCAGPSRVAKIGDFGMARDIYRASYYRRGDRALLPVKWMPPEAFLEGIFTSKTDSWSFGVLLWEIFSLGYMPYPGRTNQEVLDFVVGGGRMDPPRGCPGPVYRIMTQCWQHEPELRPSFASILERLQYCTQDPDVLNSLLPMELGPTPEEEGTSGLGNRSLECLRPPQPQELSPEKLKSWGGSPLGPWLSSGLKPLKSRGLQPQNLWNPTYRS
T5 sequence (Q9Y4K4 whole entry): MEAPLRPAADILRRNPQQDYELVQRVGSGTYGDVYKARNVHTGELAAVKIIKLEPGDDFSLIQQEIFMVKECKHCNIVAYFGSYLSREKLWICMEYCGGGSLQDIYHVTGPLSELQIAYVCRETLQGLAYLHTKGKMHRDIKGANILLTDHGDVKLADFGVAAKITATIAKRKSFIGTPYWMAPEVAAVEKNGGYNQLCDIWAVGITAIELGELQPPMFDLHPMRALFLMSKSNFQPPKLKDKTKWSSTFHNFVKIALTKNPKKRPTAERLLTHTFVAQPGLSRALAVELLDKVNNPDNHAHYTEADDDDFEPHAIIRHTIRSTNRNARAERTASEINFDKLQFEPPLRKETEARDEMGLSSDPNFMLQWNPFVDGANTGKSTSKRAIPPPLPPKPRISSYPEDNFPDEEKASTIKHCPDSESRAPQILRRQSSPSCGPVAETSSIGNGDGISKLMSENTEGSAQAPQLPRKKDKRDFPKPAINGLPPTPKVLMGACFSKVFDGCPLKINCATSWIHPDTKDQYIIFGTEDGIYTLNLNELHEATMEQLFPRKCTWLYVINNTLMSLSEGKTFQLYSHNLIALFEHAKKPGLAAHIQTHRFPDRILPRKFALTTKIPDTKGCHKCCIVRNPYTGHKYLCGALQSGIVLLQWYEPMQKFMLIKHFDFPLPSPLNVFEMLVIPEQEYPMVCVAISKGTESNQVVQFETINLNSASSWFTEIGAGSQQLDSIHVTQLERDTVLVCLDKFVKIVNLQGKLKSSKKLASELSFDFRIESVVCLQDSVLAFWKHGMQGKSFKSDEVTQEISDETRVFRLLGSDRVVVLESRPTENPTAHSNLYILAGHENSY
T6 sequence (O75582 whole entry): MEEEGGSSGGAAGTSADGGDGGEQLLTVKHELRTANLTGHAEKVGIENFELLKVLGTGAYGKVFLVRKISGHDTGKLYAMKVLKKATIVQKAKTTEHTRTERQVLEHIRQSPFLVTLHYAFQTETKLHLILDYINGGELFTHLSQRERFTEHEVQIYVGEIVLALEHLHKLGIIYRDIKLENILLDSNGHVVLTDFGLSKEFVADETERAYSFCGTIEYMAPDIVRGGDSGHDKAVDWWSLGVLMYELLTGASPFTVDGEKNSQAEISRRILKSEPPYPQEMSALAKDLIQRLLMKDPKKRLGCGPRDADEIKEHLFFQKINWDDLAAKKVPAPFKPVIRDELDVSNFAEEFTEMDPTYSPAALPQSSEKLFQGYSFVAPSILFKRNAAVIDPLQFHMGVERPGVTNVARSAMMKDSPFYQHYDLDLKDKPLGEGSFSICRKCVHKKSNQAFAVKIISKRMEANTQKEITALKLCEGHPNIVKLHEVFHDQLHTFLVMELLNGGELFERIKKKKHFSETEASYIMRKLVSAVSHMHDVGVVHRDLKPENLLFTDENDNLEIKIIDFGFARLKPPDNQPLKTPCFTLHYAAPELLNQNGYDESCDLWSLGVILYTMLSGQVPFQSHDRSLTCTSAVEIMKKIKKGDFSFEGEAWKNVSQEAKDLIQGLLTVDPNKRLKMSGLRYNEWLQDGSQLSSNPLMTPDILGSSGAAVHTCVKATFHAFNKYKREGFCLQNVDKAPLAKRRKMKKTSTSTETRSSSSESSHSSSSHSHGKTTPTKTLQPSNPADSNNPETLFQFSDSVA

Q: Which results are given for `COc1ccc2c(c1OC)c(=O)n1c3ccc(O)cc3c3ccnc2c31` [MW01, 5-Hydroxy-10,11-dimethoxy-9H-benzo[c]indolo[3,2,1-ij][1,5]naphthyridin-9-one]?
A: inhibition at 1 µM [1]: -2%; inhibition at 10 µM [1]: -6%; inhibition at 1 µM [2]: -3%; inhibition at 10 µM [2]: 9%; inhibition at 1 µM [3]: 0%; inhibition at 10 µM [3]: 13%; inhibition at 1 µM [4]: 19%; inhibition at 10 µM [4]: 44%; inhibition at 1 µM [5]: 39%; inhibition at 10 µM [5]: 68%; inhibition at 1 µM [6]: 5%; inhibition at 10 µM [6]: 25%; inhibition at 1 µM [7]: 5%; inhibition at 10 µM [7]: 12%; inhibition at 1 µM [8]: 15%; inhibition at 10 µM [8]: 25%

Q: Which inhibition at 1 µM [1] does the source give for `COc1ccc2cc3c(N)nn(C(=O)c4cccc(N(C)C)c4)c3nc2c1` [MW05, (3-Amino-7-methoxypyrazolo[3,4-b]quinolin-1-yl)-[3-(dimethylamino)phenyl]methanone] here?
A: Its inhibition at 1 µM is -6%.

Q: What about the inhibition at 10 µM [1] of the same molecule?
A: The inhibition at 10 µM was -8%.

Q: What about the inhibition at 1 µM [2] of the same molecule?
A: Its inhibition at 1 µM is -3%.

Q: And the inhibition at 10 µM [2]?
A: The inhibition at 10 µM was -6%.

Q: What about the inhibition at 1 µM [3] of the same molecule?
A: Its inhibition at 1 µM is -4%.

Q: And the inhibition at 10 µM [3]?
A: The inhibition at 10 µM was -22%.

Q: And the inhibition at 1 µM [4]?
A: The inhibition at 1 µM was 7%.

Q: And the inhibition at 10 µM [4]?
A: Its inhibition at 10 µM is -9%.

Q: What about the inhibition at 1 µM [5] of the same molecule?
A: Its inhibition at 1 µM is 15%.

Q: What about the inhibition at 10 µM [5] of the same molecule?
A: The inhibition at 10 µM was 4%.

Q: And the inhibition at 1 µM [6]?
A: The inhibition at 1 µM was 2%.

Q: And the inhibition at 10 µM [6]?
A: The inhibition at 10 µM was -14%.

Q: And the inhibition at 1 µM [7]?
A: Its inhibition at 1 µM is 4%.

Q: And the inhibition at 10 µM [7]?
A: The inhibition at 10 µM was -2%.

Q: And the inhibition at 1 µM [8]?
A: Its inhibition at 1 µM is 16%.

Q: And the inhibition at 10 µM [8]?
A: The inhibition at 10 µM was 14%.
